Measurements published in ChEMBL document CHEMBL2074349, “Rifampicin enhances anti-cancer drug accumulation and activity in multidrug-resistant cells” (Biochem Pharmacol, 1995).

Assays:
[1] = target: Multidrug resistance protein 1a (Rattus norvegicus) (UniProt Q6PSM0); test: TP_TRANSPORTER: increase in Vinblastine intracellular accumulation (Vinblastine: 0.0125 uM, Rifamycin B: 200 uM) in RHC1 cells; type: functional, cell-based
[2] = target: Multidrug resistance protein 1a (Rattus norvegicus) (UniProt Q6PSM0); test: TP_TRANSPORTER: increase in Vinblastine intracellular accumulation (Vinblastine: 0.0125 uM, Rifamycin SV: 200 uM) in RHC1 cells; type: functional, cell-based
[3] = target: Multidrug resistance protein 1a (Rattus norvegicus) (UniProt Q6PSM0); test: TP_TRANSPORTER: increase in Vinblastine intracellular accumulation (Vinblastine: 0.0125 uM, Rifampicin: 200 uM) in RHC1 cells; type: functional, cell-based
[4] = target: ATP-dependent translocase ABCB1 (Homo sapiens, UniProt P08183); test: TP_TRANSPORTER: inhibition of Azidopine photoaffinity labelling (Rifampicin: 200 uM) in membranes from K562 R7 cells; type: functional, cell membranes, Membrane; settings: k562/r7, 200 µM
ATP-dependent translocase ABCB1, sequence (P08183 whole entry): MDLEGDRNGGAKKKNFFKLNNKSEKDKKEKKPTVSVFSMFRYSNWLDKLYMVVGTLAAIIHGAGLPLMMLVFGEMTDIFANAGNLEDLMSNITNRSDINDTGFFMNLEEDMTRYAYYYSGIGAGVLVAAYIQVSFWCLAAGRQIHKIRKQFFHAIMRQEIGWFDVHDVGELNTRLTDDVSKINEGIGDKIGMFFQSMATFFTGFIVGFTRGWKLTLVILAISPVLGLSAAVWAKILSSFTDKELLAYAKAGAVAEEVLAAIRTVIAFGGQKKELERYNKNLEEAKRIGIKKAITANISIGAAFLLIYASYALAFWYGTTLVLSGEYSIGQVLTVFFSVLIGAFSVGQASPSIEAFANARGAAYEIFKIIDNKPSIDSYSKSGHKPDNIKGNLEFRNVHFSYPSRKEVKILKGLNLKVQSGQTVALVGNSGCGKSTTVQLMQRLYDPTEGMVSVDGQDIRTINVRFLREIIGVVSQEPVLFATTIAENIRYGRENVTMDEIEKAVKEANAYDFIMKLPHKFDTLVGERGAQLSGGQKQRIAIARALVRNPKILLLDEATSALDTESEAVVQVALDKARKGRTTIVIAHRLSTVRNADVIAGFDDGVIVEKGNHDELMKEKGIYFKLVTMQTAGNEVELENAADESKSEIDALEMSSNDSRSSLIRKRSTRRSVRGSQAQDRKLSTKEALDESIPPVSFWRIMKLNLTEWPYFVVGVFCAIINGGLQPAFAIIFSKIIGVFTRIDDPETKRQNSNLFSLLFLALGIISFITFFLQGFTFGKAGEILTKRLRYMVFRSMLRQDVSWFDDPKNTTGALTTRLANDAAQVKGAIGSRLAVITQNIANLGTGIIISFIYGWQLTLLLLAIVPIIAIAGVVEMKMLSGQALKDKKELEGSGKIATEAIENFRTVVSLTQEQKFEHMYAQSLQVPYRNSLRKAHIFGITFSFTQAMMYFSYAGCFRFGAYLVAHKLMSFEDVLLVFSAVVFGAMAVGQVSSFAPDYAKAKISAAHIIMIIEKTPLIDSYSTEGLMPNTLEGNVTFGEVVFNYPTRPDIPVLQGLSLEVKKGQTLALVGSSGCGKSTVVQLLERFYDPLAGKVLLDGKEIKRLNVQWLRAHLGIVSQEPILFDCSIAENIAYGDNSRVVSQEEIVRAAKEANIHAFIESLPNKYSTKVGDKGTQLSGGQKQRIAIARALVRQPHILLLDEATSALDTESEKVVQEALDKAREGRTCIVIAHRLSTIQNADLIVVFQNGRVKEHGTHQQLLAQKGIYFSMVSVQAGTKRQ

Multidrug resistance protein 1a (Rattus norvegicus), sequence (Q6PSM0 as listed by the source): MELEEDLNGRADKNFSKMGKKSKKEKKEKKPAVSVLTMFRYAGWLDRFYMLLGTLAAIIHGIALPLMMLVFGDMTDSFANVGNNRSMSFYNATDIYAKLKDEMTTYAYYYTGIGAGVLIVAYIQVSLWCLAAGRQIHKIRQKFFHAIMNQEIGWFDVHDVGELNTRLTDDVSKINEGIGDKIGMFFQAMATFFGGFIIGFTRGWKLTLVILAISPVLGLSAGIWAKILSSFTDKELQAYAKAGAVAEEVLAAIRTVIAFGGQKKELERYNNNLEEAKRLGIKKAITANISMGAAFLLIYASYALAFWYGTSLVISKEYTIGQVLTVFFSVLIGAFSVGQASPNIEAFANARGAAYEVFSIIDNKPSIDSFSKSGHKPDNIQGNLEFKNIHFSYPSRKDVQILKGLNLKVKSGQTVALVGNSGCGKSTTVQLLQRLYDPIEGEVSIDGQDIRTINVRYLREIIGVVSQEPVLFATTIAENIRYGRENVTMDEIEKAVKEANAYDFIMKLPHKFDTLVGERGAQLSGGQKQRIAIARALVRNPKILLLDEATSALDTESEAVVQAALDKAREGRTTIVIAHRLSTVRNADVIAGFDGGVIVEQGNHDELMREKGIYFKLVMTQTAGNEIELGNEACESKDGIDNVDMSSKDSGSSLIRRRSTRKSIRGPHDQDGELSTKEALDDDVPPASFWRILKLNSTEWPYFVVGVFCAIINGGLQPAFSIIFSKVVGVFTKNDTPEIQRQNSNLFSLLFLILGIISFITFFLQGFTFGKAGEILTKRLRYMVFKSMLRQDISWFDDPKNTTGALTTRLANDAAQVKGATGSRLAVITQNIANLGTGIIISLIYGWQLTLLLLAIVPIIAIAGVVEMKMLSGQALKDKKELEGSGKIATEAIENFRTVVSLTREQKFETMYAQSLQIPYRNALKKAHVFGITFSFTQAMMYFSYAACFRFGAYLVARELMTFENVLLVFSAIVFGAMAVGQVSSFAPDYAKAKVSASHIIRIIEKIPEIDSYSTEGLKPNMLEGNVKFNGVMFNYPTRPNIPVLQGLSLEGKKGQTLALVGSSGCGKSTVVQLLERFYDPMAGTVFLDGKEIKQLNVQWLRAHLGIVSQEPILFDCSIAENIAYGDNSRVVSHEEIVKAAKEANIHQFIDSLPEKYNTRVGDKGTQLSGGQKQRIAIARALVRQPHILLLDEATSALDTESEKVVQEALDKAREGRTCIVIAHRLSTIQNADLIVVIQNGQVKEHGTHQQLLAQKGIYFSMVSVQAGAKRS

## COC1/C=C/OC2(C)Oc3c(C)c(O)c4c(O)c(cc(OCC(=O)Nc5ccc(I)cc5)c4c3C2=O)NC(=O)/C(C)=C\C=C\C(C)C(O)C(C)C(O)C(C)C(OC(C)=O)C1C (centres undefined)
[1]
  Activity: is not an inhibitor [-]

## CO[C@H]1/C=C/O[C@@]2(C)Oc3c(C)c(O)c4c(O)c(cc(O)c4c3C2=O)NC(=O)/C(C)=C\C=C\[C@H](C)[C@H](O)[C@@H](C)[C@@H](O)[C@@H](C)[C@H](OC(C)=O)[C@@H]1C
[2]
  Activity: inhibitor [+]

## CO[C@H]1/C=C/O[C@@]2(C)Oc3c(C)c(O)c4c(O)c(c(/C=N/N5CCN(C)CC5)c(O)c4c3C2=O)NC(=O)/C(C)=C\C=C\[C@H](C)[C@H](O)[C@@H](C)[C@@H](O)[C@@H](C)[C@H](OC(C)=O)[C@@H]1C [RIFAMPIN]
[3]
  Activity: inhibitor [+]
[4]
  Activity: inhibitor [+]
